Several values for one entry are separate records, joined by “and”; a condition that tells them apart may be missing. Equal entries are not always repeated. A value given as a limit tells only on which side of the number the result lay.

Chain of MAPK14 (Q16539 whole entry, looked up): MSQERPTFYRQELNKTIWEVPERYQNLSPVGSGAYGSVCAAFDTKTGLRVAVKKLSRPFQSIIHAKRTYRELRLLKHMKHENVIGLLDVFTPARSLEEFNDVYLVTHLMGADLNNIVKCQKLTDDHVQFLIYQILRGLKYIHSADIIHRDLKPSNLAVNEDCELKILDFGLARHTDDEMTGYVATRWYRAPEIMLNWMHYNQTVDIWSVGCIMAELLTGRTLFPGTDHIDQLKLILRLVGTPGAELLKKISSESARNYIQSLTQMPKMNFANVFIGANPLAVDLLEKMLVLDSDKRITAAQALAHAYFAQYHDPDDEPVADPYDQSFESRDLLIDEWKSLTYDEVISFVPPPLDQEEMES

The assay addresses MAPK14 (UniProt Q16539). The assay is described as follows: Inhibition of MAPK14 Kinase Activity.
`Cn1nc(C(C)(C)C)cc1NC(=O)Nc1cc(F)cc(OC2CCN(C(=O)c3cc[nH]c3)CC2)c1` displayed an IC50 of under 5 µM.
Compound `Cn1nc(C(C)(C)C)cc1NC(=O)Nc1ccc(CN2CCN(C(=O)c3ccc(F)cc3Cl)CC2)cc1` displayed an IC50 of under 5 µM.
`Cn1nc(C(C)(C)C)cc1NC(=O)Nc1ccc(OC2CCN(C(=O)c3ccccc3)CC2)cc1` yielded an IC50 of under 5 µM.
`Cn1nc(C(C)(C)C)cc1NC(=O)Nc1cccc(OC2CCN(C(=O)c3sccc3Cl)CC2)c1` registered an IC50 of under 5 µM.
With `CC(C)n1nc(C(C)(C)C)cc1NC(=O)Nc1ccc(CN2CCN(C(=O)c3c(F)cccc3F)CC2)cc1` the figure was under 5 µM; with `Cc1ccsc1C(=O)N1CCC(Oc2cc(F)cc(NC(=O)Nc3cc(C(C)(C)C)nn3C)c2)CC1`, under 5 µM; with `Cc1ccc(-n2nc(C(C)(C)C)cc2NC(=O)Nc2ccc(N3CCN(C(=O)c4c(F)cccc4F)CC3)cc2)cc1`, under 5 µM.
With `Cn1nc(C(C)(C)C)cc1NC(=O)Nc1ccc(OC2CCN(C(=O)c3sccc3Cl)CC2)cc1`, the IC50 is under 5 µM.
`Cn1nc(C(C)(C)C)cc1NC(=O)Nc1ccc(OC2CCN(C(=O)c3ccncc3)CC2)cc1` returned a 50% inhibitory concentration (IC50) of under 5 µM.
As to `CC(=O)N1CCN(Cc2ccc(NC(=O)Nc3cc(C(C)(C)C)nn3C)cc2)CC1`, the concentration for half-maximal inhibition (IC50) was under 5 µM.
On to `Cc1ccc(-n2nc(C(C)(C)C)cc2NC(=O)Nc2ccc(N3CCN(C(=O)C4CCC4)CC3)cc2)cc1`, for which the IC50 was under 5 µM.
As to `Cn1nc(C(C)(C)C)cc1NC(=O)Nc1cc(F)cc(OC2CCN(C(=O)c3c(F)cccc3F)CC2)c1`, the IC50 is under 5 µM.
Compound `CC(C)(C)c1cc(NC(=O)Nc2ccc(CN3CCN(C(=O)c4c(F)cccc4F)CC3)c(F)c2)n(C(C)(C)C)n1` showed an IC50 of under 5 µM.
`Cn1nc(C(C)(C)C)cc1NC(=O)Nc1ccc(OC2CCN(C(=O)c3ccsc3)CC2)cc1` came in with an IC50 of under 5 µM.
Take `Cn1nc(C(C)(C)C)cc1NC(=O)Nc1ccc(OC2CCN(C(=O)c3c(Cl)cncc3Cl)CC2)cc1`: the IC50 is under 5 µM.
For `Cn1nc(C(C)(C)C)cc1NC(=O)Nc1ccc(OC2CCN(S(C)(=O)=O)CC2)cc1`, the IC50 is under 5 µM.
Take `Cc1ccc(-n2nc(C(C)(C)C)cc2NC(=O)Nc2ccc(N3CCN(C(=O)C4CC4C)CC3)cc2)cc1` (centres undefined): the IC50 is under 5 µM.
Under `Cn1nc(C(C)(C)C)cc1NC(=O)Nc1cc(F)cc(OC2CCN(C(=O)c3cccc4[nH]ccc34)CC2)c1` stands under 5 µM; under `COc1ccc(C(=O)N2CCC(Oc3cc(F)cc(NC(=O)Nc4cc(C(C)(C)C)nn4C)c3)CC2)c(OC)n1`, under 5 µM.
For `Cc1ccc(-n2nc(C(C)(C)C)cc2NC(=O)Nc2ccc(OCC3CCN(C(=O)c4c(Cl)cccc4Cl)CC3)c3ccccc23)cc1`, the IC50 was under 5 µM.
Regarding `Cn1nc(C(C)(C)C)cc1NC(=O)Nc1ccc(OC2CCN(C(=O)C(C)(C)C)CC2)cc1`, the IC50 is under 5 µM.
`CCn1nc(C(C)(C)C)cc1NC(=O)Nc1ccc(CN2CCN(C(=O)c3c(F)cccc3F)CC2)cc1F` had an IC50 of under 5 µM.
`Cn1nc(C(C)(C)C)cc1NC(=O)Nc1cccc(OC2CCN(C(=O)c3ccc(Br)s3)CC2)c1` came in with an IC50 of under 5 µM.
Turning to `Cn1nc(C(C)(C)C)cc1NC(=O)Nc1cc(F)cc(OC2CCN(C(=O)c3cc4ccccc4[nH]3)CC2)c1`, the IC50 is under 5 µM.
Regarding `Cc1ccc(-n2nc(C(C)(C)C)cc2NC(=O)Nc2ccc(N3CCN(C(=O)C4(C)CC4)CC3)cc2)cc1`, the IC50 is under 5 µM.
Turning to `Cn1nc(C(C)(C)C)cc1NC(=O)Nc1cc(F)cc(OC2CCN(C(=O)C3CC3)CC2)c1`, the IC50 is under 5 µM.
Consider `Cc1ccc(-n2nc(C(C)(C)C)cc2NC(=O)Nc2ccc(CN3CCN(C(=O)c4c(Cl)cccc4Cl)CC3)cc2)cc1`, for which the IC50 is under 5 µM.
On to `Cn1nc(C(C)(C)C)cc1NC(=O)Nc1ccc(CN2CCN(C(=O)c3c(F)cccc3F)CC2)cc1`, for which the IC50 was 0.01 µM and < 5 µM.
For `CC(C)n1nc(C(C)(C)C)cc1NC(=O)Nc1ccc(CN2CCN(C(=O)c3ccc(F)cc3F)CC2)c(F)c1`, the IC50 is under 5 µM.
Compound `Cc1ccc(-n2nc(C(C)(C)C)cc2NC(=O)Nc2ccc(N3CCN(C(=O)C4CCCNC4)CC3)cc2)cc1` (centres undefined) showed an IC50 of under 5 µM.
Under `Cn1nc(C(C)(C)C)cc1NC(=O)Nc1cc(F)cc(OC2CCN(C(=O)c3ccccc3Cl)CC2)c1` stands under 5 µM; under `Cc1ccc(-n2nc(C(C)(C)C)cc2NC(=O)Nc2cc(F)cc(OC3CCN(C(=O)c4ccccc4F)CC3)c2)cc1`, under 5 µM; under `CCCC(C)(C)C(=O)N1CCN(c2ccc(NC(=O)Nc3cc(C(C)(C)C)nn3-c3ccc(C)cc3)cc2)CC1`, under 5 µM.
In turn, `Cn1nc(C(C)(C)C)cc1NC(=O)Nc1ccc(CN2CCN(C(=O)c3c(F)cccc3Cl)CC2)cc1` gave an IC50 of under 5 µM.
`Cn1nc(C(C)(C)C)cc1NC(=O)Nc1cc(F)cc(OC2CCN(C(=O)C3(C)CC3)CC2)c1` showed an IC50 of under 5 µM.
Compound `Cn1nc(C(C)(C)C)cc1NC(=O)Nc1ccc(OC2CCN(C(=O)c3ccc(Cl)nc3)CC2)cc1` showed an IC50 of under 5 µM.
In turn, `Cc1cc(C(=O)N2CCC(Oc3cccc(NC(=O)Nc4cc(C(C)(C)C)nn4C)c3)CC2)c(C)[nH]1` had an IC50 of under 5 µM.
`Cn1nc(C(C)(C)C)cc1NC(=O)Nc1ccc(OC2CCN(C(=O)c3c(F)cccc3Cl)CC2)cc1` returned an IC50 of under 5 µM.
In turn, `Cc1ccc(-n2nc(C(C)(C)C)cc2NC(=O)Nc2ccc(N3CCN(C(=O)C(C)(C)C)CC3)cc2)cc1` showed an IC50 of 0.091 µM.
As to `Cc1ccc(-n2nc(C(C)(C)C)cc2NC(=O)Nc2ccc(N3CCN(S(=O)(=O)C(C)C)CC3)cc2)cc1`, the IC50 is under 5 µM.
In turn, `Cn1nc(C(C)(C)C)cc1NC(=O)Nc1cccc(C2CCN(C(=O)c3c(Cl)cccc3Cl)CC2)c1` came in with an IC50 of under 5 µM.
`Cn1nc(C(C)(C)C)cc1NC(=O)Nc1ccc(CN2CCN(C(=O)c3c(F)cccc3F)CC2)c(F)c1`: the IC50 was under 5 µM.
Turning to `CCn1nc(C(C)(C)C)cc1NC(=O)Nc1ccc(CN2CCN(C(=O)c3ccc(F)cc3F)CC2)cc1F`, the IC50 is under 5 µM.
With `Cn1nc(C(C)(C)C)cc1NC(=O)Nc1ccc(CN2CCN(C(=O)c3ccc(C(F)(F)F)cc3)CC2)cc1` the figure was under 5 µM; with `Cn1nc(C(C)(C)C)cc1NC(=O)Nc1ccc(N2CCN(C(=O)c3c(F)cccc3F)CC2)cc1`, under 5 µM; with `Cn1nc(C(C)(C)C)cc1NC(=O)Nc1ccc(CN2CCN(C(=O)c3ccccc3)CC2)cc1`, under 5 µM.
In turn, `Cn1nc(C(C)(C)C)cc1NC(=O)Nc1cc(F)cc(OC2CCN(C(=O)c3c(Cl)cncc3Cl)CC2)c1` yielded an IC50 of under 5 µM.
Turning to `Cc1ccc(-n2nc(C(C)(C)C)cc2NC(=O)Nc2cc(F)cc(OC3CCN(C(=O)c4sccc4C)CC3)c2)cc1`, the IC50 is under 5 µM.
With `Cn1nc(C(C)(C)C)cc1NC(=O)Nc1ccc(CN2CCN(C(=O)c3ccc(Cl)cc3Cl)CC2)cc1` the figure was under 5 µM.
Take `Cn1nc(C(C)(C)C)cc1NC(=O)Nc1cccc(OC2CCN(C(=O)c3ccccc3Cl)CC2)c1`: the IC50 is under 5 µM.
`Cn1nc(C(C)(C)C)cc1NC(=O)Nc1ccc(OC2CCN(C(=O)C3CC3)CC2)cc1` had an IC50 of under 5 µM.
Under `CCn1nc(C(C)(C)C)cc1NC(=O)Nc1ccc(CN2CCN(C(=O)c3c(F)cccc3F)CC2)cc1` stands under 5 µM; under `CN(C)CCOc1ccc(C(=O)N2CCC(Oc3cc(F)cc(NC(=O)Nc4cc(C(C)(C)C)nn4C)c3)CC2)cc1`, under 5 µM.
`Cn1nc(C(C)(C)C)cc1NC(=O)Nc1ccc(OC2CCN(C(=O)c3ccccc3F)CC2)cc1` showed an IC50 of under 5 µM.

Usually IC50 stands for the point on the concentration scale where inhibition reaches its midpoint.

These data come from the Kinase Knowledgebase extract (Sharma et al. 2016).
